In patent publication US9708251B2, “Unsaturated fatty alcohol alkoxylates from natural oil metathesis” (Stepan Company, priority 2012, dated 2017):
Blank lines part the entries; values can stand above or below the molecule they belong to.

What was measured:
[1] = Fabric cleaning: compaction (surfactant blends); type: physicochemical
Description: The sample is formulated into surfactant blends having high actives content. Two experimental derivatives, A12-13 and A12-21, are evaluated.
In a first experiment, a three-component surfactant blend is prepared. This blend comprises the experimental sample (30 wt. %), a linear alkylbenzene sulfonate (15 wt. %), and an alkyl ether sulfate (15 wt. %). The appearance and viscosity of the blend are compared with those of similar three-component blends in which a standard alcohol ethoxylate replaces the experimental sample.
In a second experiment, a two-component surfactant blend is prepared in which the experimental sample and a linear alkylbenzene sulfonate are combined at a 1:1 actives ratio, beginning with a high actives blend having a cloudy appearance. Water is gradually added and mixed with the surfactant blend at room temperature. […]

[2] = Surfactant phase behavior study (cross-polarized microscopy); type: physicochemical; settings: room temperature, in deionized water
Outline: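 Saturated analogs serve as comparators. Water dilutions of the product, stepped at 2-4% near transitions, equilibrated between slide and cover glass and assigned phase by cross-polarized microscopy texture at 100-400×, 20-22° C. Boundaries lie within ±5% actives; some samples checked by viscosity at 25° C.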

[3] = Emulsion stability testing of nonionic emulsifiers, Hallcomid solvent series; type: physicochemical; set-up: key to 24 h separation, appearance / 1 h separation, appearance / 1 h separation, amount: C = creamy; CO = creamy oil; O = oil; GC = gritty cream; NS = no separation; OC = oily cream; key to Spon. (spontaneity): G = good; F = fair; P = poor
[4] = Emulsion stability testing of nonionic emulsifiers, aromatic solvent series; type: physicochemical; set-up: key to 24 h separation, appearance / 1 h separation, appearance / 1 h separation, amount: C = creamy; CO = creamy oil; O = oil; GC = gritty cream; NS = no separation; OC = oily cream; key to Spon. (spontaneity): G = good; F = fair; P = poor
[5] = Emulsion stability testing of nonionic emulsifiers, Hallcomid solvent series; type: physicochemical; set-up: key: C = creamy; CO = creamy oil; O = oil; GC = gritty cream; NS = no separation; OC = oily cream; Tr. = trace; settings: Bifenthrin 240 g/L in Hallcomid M-8-10, 34 ppm water
Description: Nonionic samples contain a low amount of water (<1%) and are prepared as emulsifiable concentrates with three pesticides using two different solvent systems. In the aromatic solvent series, the nonionic sample replaces Toximul® 8240 (castor oil ethoxylate, 36 POE, Stepan), and in the Hallcomid™ (N,N-dimethylcaprylamide/N,N-dimethylcapramide, Stepan) solvent series, the nonionic sample replaces Ninex® MT-630F.
Hallcomid Solvent Series.
Sample preparation: The surfactants are combined and stirred until homogeneous, with the nonionic sample melted if needed prior to combination. Controls 1-3 are made by using Ninex MT-630F in the amounts indicated instead of the nonionic sample.
Emulsion Stability Testing
A Mohr pipette is used to feed pesticide/surfactant concentrates to each cylinder.

[6] = as above; type: physicochemical; set-up: key: C = creamy; CO = creamy oil; O = oil; GC = gritty cream; NS = no separation; OC = oily cream; settings: Bifenthrin 240 g/L in Hallcomid M-8-10, 34 ppm water
[7] = Performance as a latex paint additive (formulation, KU, rating); settings: initial KU of 90; additive 1% active based on latex solids
Description: Titanium dioxide slurry (Dupont Ti-Pure® R746) is charged to a container, followed by deionized water and propylene glycol, and the contents are mixed (500 rpm). […] The pH is adjusted to 9.0 using ammonium hydroxide solution. The batch is mixed for 30 min. and then allowed to stand for at least 2 h. […] Viscosity is adjusted to an initial KU of 90 with more thickener.

[8] = three-component blend: sample 30 wt. %, linear alkylbenzene sulfonate 15 wt. %, alkyl ether sulfate 15 wt. %
[9] = 2,4-D diester 480 g/L in Hallcomid M-8-10, 34 ppm water
[10] = 2,4-D diester 480 g/L in Hallcomid M-8-10, 1000 ppm water
[11] = Bifenthrin 240 g/L in Hallcomid M-8-10, 34 ppm water
[12] = Bifenthrin 240 g/L in Hallcomid M-8-10, 1000 ppm water
[13] = Tebuconazole 360 g/L in Hallcomid M-8-10, 34 ppm water
[14] = Tebuconazole 360 g/L in Hallcomid M-8-10, 1000 ppm water
[15] = 2,4-D ester 480 g/L in Exxsol D-110, 34 ppm water
[16] = 2,4-D ester 480 g/L in Exxsol D-110, 1000 ppm water
[17] = Bifenthrin 240 g/L in Aromatic 100, 34 ppm water
[18] = Bifenthrin 240 g/L in Aromatic 100, 1000 ppm water
[19] = Tebuconazole 360 g/L in N-methyl-2-pyrrolidone, 34 ppm water
[20] = Tebuconazole 360 g/L in N-methyl-2-pyrrolidone, 1000 ppm water

Structure (SMILES): CCC=CCCCCCCCCOCCOCCOCCOCCOCCOCCOCCO (mixture of isomers) [A12-13]
Appearance, 25° C. [1, 8]: cloudy, flowable gel
Viscosity [1, 8]: 5400 cPs
% Actives at which blend is clear and homogeneous at 25° C. ([1]; two-component blend with linear alkylbenzene sulfonate, 1:1 actives ratio): 41 % Actives
Hexagonal phase region [2]: 35-57 % Actives Level
1 h separation, amount [3, 9]: 4.4 mL
1 h separation, appearance [3, 9]: C
24 h separation, amount [3, 9]: 9.6 mL
24 h separation, appearance [3, 9]: C
Spon. (spontaneity) [3, 9]: P
1 h separation, amount [3, 10]: 5.2 mL
1 h separation, appearance [3, 10]: C
24 h separation, amount [3, 10]: 9 mL
24 h separation, appearance [3, 10]: C
Spon. (spontaneity) [3, 10]: F
1 h separation, amount [3, 11]: NS
24 h separation, appearance [3, 11]: C
Spon. (spontaneity) [3, 11]: G
1 h separation, amount [3, 12]: 5.1 mL
1 h separation, appearance [3, 12]: CO
24 h separation, amount [3, 12]: 3 O, 2 CO
Spon. (spontaneity) [3, 12]: F
1 h separation, amount [3, 13]: 1.3 mL
1 h separation, appearance [3, 13]: C
24 h separation, amount [3, 13]: 4.1 mL
24 h separation, appearance [3, 13]: C
Spon. (spontaneity) [3, 13]: F
1 h separation, amount [3, 14]: 1.8 mL
1 h separation, appearance [3, 14]: C
24 h separation, amount [3, 14]: 4.3 mL
24 h separation, appearance [3, 14]: C
Spon. (spontaneity) [3, 14]: G
1 h separation, amount [4, 15]: 3.5 mL
1 h separation, appearance [4, 15]: C
24 h separation, amount [4, 15]: 5 mL
24 h separation, appearance [4, 15]: C
Spon. (spontaneity) [4, 15]: F
1 h separation, amount [4, 16]: 5.2 mL
1 h separation, appearance [4, 16]: CO
24 h separation, amount [4, 16]: 5 mL
24 h separation, appearance [4, 16]: CO
Spon. (spontaneity) [4, 16]: F
1 h separation, amount [4, 17]: 1 mL
1 h separation, appearance [4, 17]: C
24 h separation, amount [4, 17]: 4.9 mL
24 h separation, appearance [4, 17]: C
Spon. (spontaneity) [4, 17]: F
1 h separation, amount [4, 18]: Tr.
1 h separation, appearance [4, 18]: C
24 h separation, amount [4, 18]: 0.5 CO, 1 C
Spon. (spontaneity) [4, 18]: G
1 h separation, amount [4, 19]: 1.8 mL
1 h separation, appearance [4, 19]: C
24 h separation, amount [4, 19]: 3 GC, 4 CO
Spon. (spontaneity) [4, 19]: P
1 h separation, amount [4, 20]: 2.4 mL
1 h separation, appearance [4, 20]: C
24 h separation, amount [4, 20]: 3.5 mL
24 h separation, appearance [4, 20]: GC
Spon. (spontaneity) [4, 20]: P
24 h separation, amount [5]: Tr.

24 h separation, amount [6]: NS
Cubic phase region [2]: 30-57 % Actives Level
Hexagonal phase region [2]: 60-70 % Actives Level
Paste phase region [2]: 93-100 % Actives Level
final KU of paint after 24 h [7]: 93-100 KU
1 h separation, amount [3, 9]: 4.5 mL
1 h separation, appearance [3, 9]: C
24 h separation, amount [3, 9]: 8.5 mL
24 h separation, appearance [3, 9]: C
Spon. (spontaneity) [3, 9]: P
1 h separation, amount [3, 10]: 4 mL
1 h separation, appearance [3, 10]: C
24 h separation, amount [3, 10]: 7 mL
24 h separation, appearance [3, 10]: C
Spon. (spontaneity) [3, 10]: P
1 h separation, amount [3, 11]: NS
Spon. (spontaneity) [3, 11]: G
1 h separation, amount [3, 12]: 6.2 mL
1 h separation, appearance [3, 12]: CO
24 h separation, amount [3, 12]: 2 O, 3.6 CO
Spon. (spontaneity) [3, 12]: F
1 h separation, amount [3, 13]: 1.5 mL
1 h separation, appearance [3, 13]: C
24 h separation, amount [3, 13]: 3 mL
24 h separation, appearance [3, 13]: C
Spon. (spontaneity) [3, 13]: F
1 h separation, amount [3, 14]: 1.5 mL
1 h separation, appearance [3, 14]: C
24 h separation, amount [3, 14]: 3 mL
24 h separation, appearance [3, 14]: C
Spon. (spontaneity) [3, 14]: F
1 h separation, amount [4, 15]: 3.9 mL
1 h separation, appearance [4, 15]: C
24 h separation, amount [4, 15]: 5.3 mL
24 h separation, appearance [4, 15]: C
Spon. (spontaneity) [4, 15]: P
1 h separation, amount [4, 16]: 2.9 mL
1 h separation, appearance [4, 16]: C
24 h separation, amount [4, 16]: 4 mL
24 h separation, appearance [4, 16]: C
Spon. (spontaneity) [4, 16]: P
1 h separation, amount [4, 17]: 5.9 mL
1 h separation, appearance [4, 17]: C
24 h separation, amount [4, 17]: 6 mL
24 h separation, appearance [4, 17]: C
Spon. (spontaneity) [4, 17]: F
1 h separation, amount [4, 18]: 5.5 mL
1 h separation, appearance [4, 18]: C
24 h separation, amount [4, 18]: 5 mL
24 h separation, appearance [4, 18]: C
Spon. (spontaneity) [4, 18]: P
1 h separation, amount [4, 19]: 1.8 mL
1 h separation, appearance [4, 19]: CO
24 h separation, amount [4, 19]: 3 mL
24 h separation, appearance [4, 19]: GC
Spon. (spontaneity) [4, 19]: F
1 h separation, amount [4, 20]: 1.9 mL
1 h separation, appearance [4, 20]: CO
24 h separation, amount [4, 20]: 3 mL
24 h separation, appearance [4, 20]: GC
Spon. (spontaneity) [4, 20]: F
Structure (SMILES): CCC=CCCCCCCCCOCCOCCOCCOCCOCCOCCOCCOCCOCCOCCOCCOCCOCCOCCOCCO (mixture of isomers) [A12-16]

Structure (SMILES): CCC=CCCCCCCCCOCCOCCOCCOCCOCCO (mixture of isomers) [A12-10]
Lamellar phase region [2]: 50-80 % Actives Level
Lamellar/Isotropic phase region [2]: 35-50 % Actives Level
1 h separation, amount [3, 9]: 5.3 mL
1 h separation, appearance [3, 9]: C
24 h separation, amount [3, 9]: 9.2 mL
24 h separation, appearance [3, 9]: C
Spon. (spontaneity) [3, 9]: P
1 h separation, amount [3, 10]: 6.8 mL
1 h separation, appearance [3, 10]: C
24 h separation, amount [3, 10]: 8.7 mL
24 h separation, appearance [3, 10]: C
Spon. (spontaneity) [3, 10]: F
1 h separation, amount [3, 11]: NS
24 h separation, appearance [3, 11]: C
Spon. (spontaneity) [3, 11]: G
1 h separation, amount [3, 12]: 6.1 mL
1 h separation, appearance [3, 12]: O
24 h separation, amount [3, 12]: 3 O, 2 CO
Spon. (spontaneity) [3, 12]: F
1 h separation, amount [3, 13]: 2.1 mL
1 h separation, appearance [3, 13]: C
24 h separation, amount [3, 13]: 5.1 mL
24 h separation, appearance [3, 13]: C
Spon. (spontaneity) [3, 13]: F
1 h separation, amount [3, 14]: 2 mL
1 h separation, appearance [3, 14]: C
24 h separation, amount [3, 14]: 4.2 mL
24 h separation, appearance [3, 14]: C
Spon. (spontaneity) [3, 14]: F
1 h separation, amount [4, 15]: 0.7 mL
1 h separation, appearance [4, 15]: C
24 h separation, amount [4, 15]: 3.9 mL
24 h separation, appearance [4, 15]: C
Spon. (spontaneity) [4, 15]: F
1 h separation, amount [4, 16]: 4.6 mL
1 h separation, appearance [4, 16]: CO
24 h separation, amount [4, 16]: 0.75 O, 4.3 CO
Spon. (spontaneity) [4, 16]: P
1 h separation, amount [4, 17]: 2.3 mL
1 h separation, appearance [4, 17]: C
24 h separation, amount [4, 17]: 9 mL
24 h separation, appearance [4, 17]: C
Spon. (spontaneity) [4, 17]: F
Spon. (spontaneity) [4, 18]: F
1 h separation, amount [4, 19]: 2.6 mL
1 h separation, appearance [4, 19]: C
24 h separation, amount [4, 19]: 4 mL
24 h separation, appearance [4, 19]: GC
Spon. (spontaneity) [4, 19]: P
1 h separation, amount [4, 20]: 2.1 mL
1 h separation, appearance [4, 20]: C
24 h separation, amount [4, 20]: 3.2 mL
24 h separation, appearance [4, 20]: GC
Spon. (spontaneity) [4, 20]: P
24 h separation, amount [5]: Tr.
